Measurements: patent publication US11638709B2, “Rucaparib, Talazoparib, Veliparib, Olaparib and AZD 2461 for treating impaired skin wound healing” (AKRIBES BIOMEDICAL GMBH, priority 2017, dated 2023)
“Also recorded” adds a separate entry of the source.

Columns and labels:
[1] = system: primary human dermal fibroblasts (HDF); test: Primary human dermal fibroblast (HDF) proliferation assay (2D) with or without wound exudate; format: cell-based; details: for fibroblast proliferation in the absence of WE: FIG. 11, 2D fibroblast culture without WE (control); for HDF proliferation in the presence of WE #78, combined with PDGF / HDF proliferation in the presence of WE #78 / HDF proliferation in the absence of WE: FIG. 14; for HDF proliferation in the presence of WE #78, combined with PDGF: plus PDGF 20 ng/ml; for HDF proliferation in the presence of WE #78 / HDF proliferation in the absence of WE: veliparib 10 μM, talazoparib 1 μM, PDGF 20 ng/ml; for HDF proliferation in the absence of WE / effect on PDGF-induced induction of proliferation in the absence of WE: no WE; for HDF proliferation with wound exudate #78, plus PDGF / HDF proliferation with wound exudate #78: FIG. 15; for HDF proliferation with wound exudate #78, plus PDGF: compound + PDGF 20 ng/ml in medium + WE #78; for HDF proliferation with wound exudate #78: compound in medium + WE #78; for wound exudate-induced inhibition of fibroblast proliferation: FIG. 20, with wound exudate; for effect on PDGF-induced induction of proliferation in the absence of WE: with PDGF
Experimental: Primary human dermal fibroblasts (HDF) were purchased from CELLnTEC, Bern. They were routinely grown in Dulbecco's modified Eagle's medium (DMEM) containing 10% FCS, 2 mM glutamine, and 100 U/ml penicillin/100 μg/ml streptomycin. Media, antibiotics, and glutamine were bought from Lonza. The cells were used at passage 5-15. Cells were trypsinized and seeded at 5000 cells/well in 200 μl into the inner wells of 96-well plates. The outer wells were loaded with sterile water. The cells were allowed to adhere overnight and then incubated for 72 hours at 37° C. under the following conditions: graded compound concentrations or 20 ng/ml PDGF-BB (Tonbo Biosciences) in the absence or presence of different dilutions of sterile-filtered WE in medium. For control samples, 200 μl medium was added instead of specific stimuli. Alternatively, the cells were seeded into 384-well plates at 2500 cells/well directly together with test compounds or growth factors and WE or medium in a total volume of […].
(§1) At the end of the 72-hour incubation period, supernatants were removed for the determination of IL-1ß, and the cells were fixed with 4% paraformaldehyde (Morphisto) for 15 minutes at room temperature and washed 3 times with PBS. A control plate was fixed after the overnight adherence of the cells (day 1) to determine the starting cell number.
Total cellular protein was determined as a measure of cell number by staining the fixed cells with sulforhodamine B (SRB, Sigma). A 0.4% SRB solution in 1% acetic acid was added to the wells for 30 minutes. The wells were then washed with 1% acetic acid until the wash solution remained colorless. […] The average absorbance of the sample representing the day 1 starting cell number (for 96-well plates) was subtracted from the absorbance values of the WE-treated cells.
All experiments were carried out in triplicate for each sample and concentration, and means±standard deviation (SD) were used for the evaluation of the experiment. Results are expressed as percentage of control values for unstimulated cells.
(§2) Low molecular weight compounds (see list in Table 1) were dissolved in DMSO (Bioreagent for cell culture, Sigma) at 10 mM or 100 mM and diluted at least 1:1000 in medium for cellular assays (final DMSO concentration ≤0.1%).
(§3) Cells were incubated with compounds for 72 hours in proliferation assays and up to 8 days for FDM assay (refreshed after 4 days). When compounds were tested for their effect on WE stimulation, the incubation of cells with compounds was started and ended simultaneously with WE-incubation.

[2] = system: primary human dermal fibroblasts (HDF); test: Fibroblast-derived matrix (FDM) formation assay (3D) with wound exudate; format: cell-based; details: for 3D fibroblast culture (FDM formation), effect of PARP inhibitors: FIG. 7, WE from patient #78
Experimental: HDF cells were seeded at 5000 cells/well on day −3 into 96-well tissue culture plates (1250 cells/well for 384-well plates), which had been pre-coated for 1 hour at 37° C. with 0.2% gelatin solution (Sigma). When the cells reached confluence (=day 0), a matrix promoting supplement (vitamin C: 2-phospho-L-ascorbic acid trisodium salt, 100 μg/ml; Sigma) was added together with test samples containing PDGF-BB, TGF-ß1 or graded concentrations of compounds −/+WE as described for the HDF proliferation assay. After 4 days, medium was replaced by fresh vitamin C—and stimulus—as well as compound-containing medium, maintaining the conditions initiated on day 0. TGF-ß1 and PDGF-BB were included as positive controls to promote FDM formation and cell growth, respectively. After a total incubation time of 8 days, FDM production was measured in fixed cultures via SRB staining and evaluated as described above. In some cases, the experiment was stopped and evaluated already on day 4.
as §2, §3

[3] = system: IL-1ß secretion by primary human dermal fibroblasts; test: IL-1ß secretion in the HDF proliferation assay with wound exudate (ELISA); format: cell-based; details: FIG. 20
Experimental: as §1
IL-1ß levels were determined with a commercial ELISA kit. The amount of IL-1ß contained in the wound exudate added to the cells was subtracted from the total IL-ß in the supernatants in order to determine the cytokine secreted by the cells.

[4] = system: wound exudate-induced pig wounds; test: Porcine model of delayed wound healing induced by human wound exudates; format: in vivo; details: veliparib 10 mM, talazoparib 1 mM
From the text: The pig is regarded as the species with the highest correlation to man in skin anatomy and physiology. Pig wounds tend to heal by a combination of granulation tissue formation and contraction, similar to human wounds, and porcine wound healing studies show a high concordance with human studies. We developed a chronically inflamed porcine wound model. Acute pig wounds were stimulated by a combination of human chronic wound fluids and the toll-like receptors 7 and 8 (TLR7,8) agonist resiquimod (R848).
Female domestic white pigs at the age of 10-12 weeks and a body weight of approximately 12 kg were sedated with 20 mg Ketamin/2 mg Xylacin i.m. followed by inhalation anesthesia via Isofluran. Immediately after induction of anesthesia, a fentanyl transdermal patch (50 μg/h) was applied to control postsurgical pain. The fentanyl patch was replaced daily for the first 3 days after surgery and afterwards only when signs of pain were apparent. Before wounding, the back hair of the animals was clipped and the skin was cleaned with Braunol and disinfected with Skinsept. Then a total of 24 full-thickness excisional wounds per animal were applied using a 6 mm disposable biopsy punch. Immediately after wounding 50 μl of a 0.05% R848 gel was applied topically to the wounds which were covered with dressing (Mölnlycke Health Care AB, Sweden). 6 hours later, the wounds were treated with 3% HPMC (hydroxypropyl methylcellulose)-gellified human wound exudates or human serum as controls. Wound exudates had been harvested from negative pressure wound therapy systems used to treat patients diagnosed with chronic ulcers. Induction of wound inflammation by R848 and wound exudate was carried out for a total of 5 consecutive days.
From day 6 to day 10, veliparib and talazoparib at 10 mM and 1 mM, respectively, were dissolved in vehicle (50% propylene glycol/47.5% water/0.5% Tween 80/2.0% HPMC), applied to the wounds once daily and covered with dressing. Until day 12, wounds and surrounding skin were clinically examined once daily, upon dressing change, and observed changes were scored on a scale from 0-3. The following criteria were used:
The total achievable score (non-healing) is 19. Healing is associated with low scores.

[5] = FIG. 4, 3D fibroblast culture with WE
[6] = FIG. 18, induced by WE #91, topical once daily day 6-10
[7] = FIG. 19, induced by WE #43, day 6-10

SMILES | 2D fibroblast culture (HDF proliferation), effect of PARP inhibitors ([1]; FIG. 8, WE from patient #78) | 2D fibroblast culture (HDF proliferation), effect of PARP inhibitors ([1]; FIG. 9, WE from patient #43) | 2D fibroblast culture (HDF proliferation), effect of PARP inhibitors ([1]; FIG. 10, WE from patient #78) | fibroblast proliferation in the absence of WE [1] | 2D fibroblast culture, PARP inhibitor effect ± dexamethasone ± Vit. C ([1]; FIG. 12, WE from patient #78) | 2D fibroblast culture, PARP inhibitor effect ± dexamethasone ± Vit. C ([1]; FIG. 13, WE from patient #43) | HDF proliferation in the presence of WE #78, combined with PDGF [1] | HDF proliferation in the presence of WE #78 [1] | HDF proliferation in the absence of WE [1] | HDF proliferation with wound exudate #78, plus PDGF [1] | HDF proliferation with wound exudate #78 [1] | wound exudate-induced inhibition of fibroblast proliferation [1] | effect on PDGF-induced induction of proliferation in the absence of WE [1] | formation of fibroblast-derived matrix, optically evaluated by microscopy [2, 5] | 3D fibroblast culture (FDM formation), effect of PARP inhibitors [2] | wound exudate-induced IL-1ß secretion [3] | delayed pig wound healing (time course, clinical score) [4, 6] | delayed pig wound healing (time course, clinical score) [4, 7] | other results
C[C@]1(c2nc3c(C(N)=O)cccc3[nH]2)CCCN1 [Veliparib, 2-((2R)-2-methylpyrrolidin-2-yl)-1H-benzimidazole-4-carboxamide] | strong and consistent positive effect | strong and consistent positive effect | strong and consistent positive effect | either no effect on fibroblast proliferation in the absence of wound exudate, or only a marginal effect | strongly beneficial effects | strongly beneficial effects | additively or synergistically enhanced by PDGF | induce proliferation | no or even an inhibitory effect | even further enhanced by the addition of PDGF | dose-dependent increase of HDF proliferation | enhanced cell proliferation | either had no effect on PDGF-induced induction of proliferation or showed inhibition of the PDGF effect | “cleaned up” WE-induced fibroblast matrix inhibition | strong and consistent positive effect | reducing IL-1ß secretion | improve wound healing | only a minor effect | WE-induced inhibition of fibroblast proliferation (2D HDF proliferation) ([1]; FIG. 1, wound exudate #78 (diabetic patient)): completely reversed inhibition of wound exudate (WE)-induced fibroblast proliferation; human dermal fibroblast proliferation (2D), effect of veliparib ([1]; FIG. 2, WE from patients #49, #43, #78, #27): most prominent in the two patients with diabetes; fibroblast 2D culture, reproducibility of effect ([1]; FIG. 3, WE samples #77 and #78 of one patient (day 1 and day 8), patient on prednisolone): reproducible in different samples of the same patient; formation of fibroblast-derived matrix, combination with dexamethasone ([2]; FIG. 4, 3D fibroblast culture with WE, microscopy): superior to each substance alone; formation of fibroblast-derived matrix, veliparib and glucocorticoids combined ([2]; FIG. 5, WE of patient #78 (diabetes, immunosuppression after kidney transplantation)): enhances the effect of glucocorticoids; formation of fibroblast-derived matrix, veliparib and glucocorticoids combined ([2]; FIG. 6, WE of patient #49 (non-diabetic, non-immunosuppressed)): could be enhanced with glucocorticoids, but not vice versa
Cn1ncnc1[C@H]1c2n[nH]c(=O)c3cc(F)cc(c23)N[C@@H]1c1ccc(F)cc1 [Talazoparib] | strong and consistent positive effect | strong and consistent positive effect | strong and consistent positive effect | weak inhibitory activity; also recorded: either no effect on fibroblast proliferation in the absence of wound exudate, or only a marginal effect | strongly beneficial effects | strongly beneficial effects | additively or synergistically enhanced by PDGF | induce proliferation | no or even an inhibitory effect | even further enhanced by the addition of PDGF | dose-dependent increase of HDF proliferation | enhanced cell proliferation | either had no effect on PDGF-induced induction of proliferation or showed inhibition of the PDGF effect | “cleaned up” WE-induced fibroblast matrix inhibition | most active of the PARP inhibitors tested in 3D culture | reducing IL-1ß secretion | improve wound healing | improves wound healing | formation of fibroblast-derived matrix, optically evaluated by microscopy ([2]; FIG. 4, 3D fibroblast culture with WE, listed as talazoparib): particularly strong and beneficial; 3D fibroblast culture (FDM formation), effect of PARP inhibitors ([2]; listed as talazoparib): strong and consistent positive effect
